Data as given in patent US6472152B1 (priority 1998, dated 2002).
“And” between values parts separate entries of the source, which are not always exact repeats. Equal values may be shown once. Read-outs that look alike come from different tables or passages of the source.

How the values were obtained:
[1] = system: Salmonella typhimurium TA104 pr1
[2] = system: TA104 recN2-4 and TA104 pr1 strain
[3] = system: Salmonella typhimurium TA104 recN2-4
[4] = system: Salmonella typhimurium TA104 recN2-4; conditions: van der Lelie et al, 1997; cited from earlier work
SOS signal = conditions: normally; cited from earlier work
[5] = without S9-mix, within the dose-range tested
[6] = without S9-mix, ratio of mean S/N values
[7] = without S9-mix, ratio of maximal S/N values
[8] = without S9-mix, maximal S/N, 60-240 min

With `COc1ccc2nc3cc(Cl)ccc3c(NCCCNCCCl)c2c1` [ICR 191 Acridine] the “Toxic (pri)” value [1] was “−”, the “concentration at which S/R's of rec/pri >1.5 MAX” value [2] was 1.25 ppm and the “concentration at which S/R's of rec/pri >1.5 MEAN” value [2] was 0.31 ppm. The “concentration at which S/R > 2 (recN2 − 4)” value (from here on “concentration … (recN2 − 4)”) [3] was 0.62 ppm.

For `O=C(N/N=C/c1ccc([N+](=O)[O-])o1)c1ccc(O)cc1` [Nifuroxazide], the toxicity evaluation ([1]; light production, without S9mix) was “dose-dependent decrease in light production indicating toxicity”, the “doses not toxic (S/N curves for the pr1 strain)” value ([1]; pr1 strain, FIG. 4) was “up to 0.16 ppm” and the “Toxic (pri)” value [1, 5] was “+”. For the same compound, the “effect at higher doses” value [2] was “toxicity combined with genotoxicity”.

With `CO[C@@]12[C@H](COC(N)=O)C3=C(C(=O)C(C)=C(N)C3=O)N1C[C@@H]1N[C@@H]12` [MMC] the “concentration at which S/R's of rec/pri >1.5 MEAN” value [2, 6] was 15.6 ppb.

In the case of `CCOS(C)(=O)=O` [EMS], the “concentration at which S/R's of rec/pri >1.5 MAX” value [2, 7] is reported as 256 ppm, the “concentration at which S/R's of rec/pri >1.5 MEAN” value [2, 6] is reported as 256 ppm and the “concentration … (recN2 − 4)” value [3, 8] is reported as 256 ppm.

In the case of `[N-]=[N+]=[N-]` [Sodium azide (NaN3), Sodium azide], the “Toxic (pri)” value [1] is reported as “+”, the “S/N values in the pr1 strain” value ([1]; Salmonella typhimurium) is reported as “greater than 2” and the “S/N, indications of toxicity obtained with time” value ([1]; Salmonella typhimurium) is reported as < 0.8. The “response in the VITOTOX test with the recN2-4 strain alone, previously reported” value [4] was “positive”, the genotoxicity evaluation [2] was “non-genotoxic” and the “S/N values in the recN2-4 strain” value ([3]; Salmonella typhimurium) was “greater than 2”. The “score in the SOS chromotest” value (SOS signal) was “negative”.

With `COS(C)(=O)=O` [MMS] the “concentration at which S/R's of rec/pri >1.5 MAX” value [2, 7] was 8 ppm, the “concentration at which S/R's of rec/pri >1.5 MEAN” value [2, 6] was 8 ppm and the “concentration … (recN2 − 4)” value [3, 8] was 16 ppm and 8 ppm.

With `CCN(CC)N=O` [N-Nitrosodiethylamine] the “concentration at which S/R's of rec/pri >1.5 MAX” value ([2]; S9-mix +25 μl/ml) was 120 ppm, the “concentration at which S/R's of rec/pri >1.5 MEAN” value ([2]; S9-mix +25 μl/ml) was 240 ppm and the “concentration … (recN2 − 4)” value ([3]; S9-mix +25 μl/ml) was 120 ppm.

In the case of `Nc1ccc2c(c1)Cc1ccccc1-2` [2AF], the “concentration at which S/R's of rec/pri >1.5 MAX” value [2] is reported as 0.2 ppm and the “concentration at which S/R's of rec/pri >1.5 MEAN” value [2] is reported as 0.2 ppm.

In the case of `c1ccc2c(c1)ccc1ccccc12` [Phenanthrene], the “Toxic (pri)” value ([1]; S9-mix +100 μl/ml, within the dose-range tested) is reported as “+”, the “concentration at which S/R's of rec/pri >1.5 MAX” value ([2]; S9-mix +100 μl/ml) is reported as 6.2 ppm and the “concentration at which S/R's of rec/pri >1.5 MEAN” value ([2]; S9-mix +100 μl/ml) is reported as 6.2 ppm. The “concentration … (recN2 − 4)” value ([3]; S9-mix +100 μl/ml) was 6.2 ppm.

In the case of `ClCC1CO1` (centres unmarked) [Epichlorohydrine], the “S/N values in the pr1 strain” value [1] is reported as ~1, the toxicity evaluation [1] is reported as “not toxic in the given dose-range” and the genotoxicity evaluation [2] is reported as “genotoxic”. The “S/N values in the recN2-4 strain” value [3] was > 2.

With `Nc1cccc2ccccc12` [a-Naphtylamine] the “concentration at which S/R's of rec/pri >1.5 MAX” value [2] was 2.5 ppm and the “concentration at which S/R's of rec/pri >1.5 MEAN” value [2] was 2.5 ppm.

With `Nc1ccc([N+](=O)[O-])cc1N` [4Nitro-o-Phenylenediamine] the “concentration at which S/R's of rec/pri >1.5 MAX” value ([2]; S9-mix +25 μl/ml) was 12.5 ppm, the “concentration at which S/R's of rec/pri >1.5 MEAN” value ([2]; S9-mix +25 μl/ml) was 12.5 ppm and the “concentration at which S/R's of rec/pri >1.5 MAX” value [2, 7] was 3.1 ppm. The “concentration at which S/R's of rec/pri >1.5 MEAN” value [2, 6] was 1.57 ppm, the “concentration … (recN2 − 4)” value ([3]; S9-mix +25 μl/ml) was 12.5 ppm and the “concentration … (recN2 − 4)” value [3, 8] was 3.1 ppm.

In the case of `O=C1OCCN1/N=C/c1ccc([N+](=O)[O-])o1` [Furazolidone], the “concentration at which S/R's of rec/pri >1.5 MAX” value ([2]; Salmonella typhimurium) is reported as 0.5 ppb.

For `COC(=O)N/N=C/c1c[n+]([O-])c2ccccc2[n+]1[O-]` [Carbadox], the “concentration at which S/R's of rec/pri >1.5 MAX” value [2, 7] was 0.08 ppm, the “concentration at which S/R's of rec/pri >1.5 MEAN” value [2, 6] was 0.04 ppm and the “concentration … (recN2 − 4)” value [3, 8] was 0.08 ppm.

In the case of `O=[N+]([O-])c1ccc2c3c(cccc13)-c1ccccc1-2` [3-Nitrofluoranthene], the “concentration at which S/R's of rec/pri >1.5 MAX” value ([2]; S9-mix +25 μl/ml) is reported as 31.2 ppb, the “concentration at which S/R's of rec/pri >1.5 MEAN” value ([2]; S9-mix +25 μl/ml) is reported as 15.7 ppb and the “concentration at which S/R's of rec/pri >1.5 MAX” value [2, 7] is reported as 31.3 ppb. The “concentration at which S/R's of rec/pri >1.5 MAX” value ([2]; without S9-mix, ratio of maximal S/N values, listed as 3Nitrofluoranthene) was 0.064 ppm, the “concentration at which S/R's of rec/pri >1.5 MEAN” value [2, 6] was 15.7 ppb and the “concentration at which S/R's of rec/pri >1.5 MEAN” value ([2]; without S9-mix, ratio of mean S/N values, listed as 3Nitrofluoranthene) was 0.032 ppm. The “concentration … (recN2 − 4)” value ([3]; S9-mix +25 μl/ml) was 15.7 ppb, the “concentration … (recN2 − 4)” value [3, 8] was 15.7 ppb and the “concentration … (recN2 − 4)” value ([3]; without S9-mix, maximal S/N, 60-240 min, listed as 3Nitrofluoranthene) was 0.032 ppm.

With `O=[N+]([O-])c1ccc2c(c1)Cc1cc([N+](=O)[O-])ccc1-2` [2,7Dinitrofluoreen] the “Toxic (pri)” value [1] was “−”, the “concentration at which S/R's of rec/pri >1.5 MAX” value [2] was 0.62 ppm and the “concentration at which S/R's of rec/pri >1.5 MEAN” value [2] was 0.62 ppm. The “concentration … (recN2 − 4)” value [3] was 0.62 ppm.

For Coumermycine A1, the “Toxic (pri)” value [1] was “+”.

With `c1ccc2c(c1)-c1cccc3cccc-2c13` [Fluoranthene] the “Toxic (pri)” value [1] was “−”, the “concentration at which S/R's of rec/pri >1.5 MAX” value ([2]; Salmonella typhimurium) was 3.1 ppm and the “concentration at which S/R's of rec/pri >1.5 MEAN” value ([2]; Salmonella typhimurium) was 3.1 ppm. The “concentration … (recN2 − 4)” value ([3]; Salmonella typhimurium) was 3.1 ppm.

With `CCn1cc(C(=O)O)c(=O)c2ccc(C)nc21` [Nalidixic acid] the “Toxic (pri)” value [1, 5] was “+”, the “concentration at which S/R's of rec/pri >1.5 MAX” value [2, 7] was 0.16 ppm and the “concentration at which S/R's of rec/pri >1.5 MEAN” value [2, 6] was 0.16 ppm. The “concentration … (recN2 − 4)” value [3, 8] was 0.16 ppm.

For `c1ccc2c(c1)ccc1c3ccccc3ccc21` [Chrysene], the “concentration at which S/R's of rec/pri >1.5 MAX” value ([2]; S9-mix +100 μl/ml) was 10 ppm and the “concentration at which S/R's of rec/pri >1.5 MEAN” value ([2]; S9-mix +100 μl/ml) was 5 ppm.
